One assay deals with Rattus norvegicus. Kind of assay: Inhibition of PAF induced cutaneous vascular permeability in rat by intravenous administration. It counts as functional.
For assay [1], the target named is Platelet-activating factor receptor (Rattus norvegicus, UniProt P46002). Kind of assay: Inhibition of platelet activating factor(PAF) by binding to PAF receptor.
Chain of Platelet-activating factor receptor (P46002 whole entry): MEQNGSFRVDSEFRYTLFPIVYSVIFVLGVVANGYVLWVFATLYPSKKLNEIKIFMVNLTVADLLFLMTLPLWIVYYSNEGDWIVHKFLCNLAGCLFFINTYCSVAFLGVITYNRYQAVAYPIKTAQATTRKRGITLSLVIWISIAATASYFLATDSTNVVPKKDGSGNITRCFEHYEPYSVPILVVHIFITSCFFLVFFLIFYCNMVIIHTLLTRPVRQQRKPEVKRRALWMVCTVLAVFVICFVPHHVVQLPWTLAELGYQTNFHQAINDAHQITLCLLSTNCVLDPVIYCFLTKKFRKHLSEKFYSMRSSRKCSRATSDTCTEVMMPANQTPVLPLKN

On to `CN(C)C(=O)n1cc(C(=O)c2ccn3c2CS[C@@H]3c2cccnc2)c2ccc(-c3ccc(F)cc3)cc21`, for which, in the assay with Rattus norvegicus (Rattus norvegicus, iv, read-out: ED50), the ED50 was found to be 0.006 mg/kg.

As to `CN(C)C(=O)n1cc(C(=O)c2ccn3c2C[S+]([O-])[C@@H]3c2cccnc2)c2ccc(-c3ccc(F)cc3)cc21` (stereo in doubt; cis), in assay [1], the affinity corresponds to a Ki of 0.0085 µM. This compound showed an ED50 in the assay with Rattus norvegicus of 0.025 mg/kg.

Compound `CN(C)C(=O)n1cc(C(=O)c2ccn3c2C[S+]([O-])[C@@H]3c2cccnc2)c2ccc(-c3ccc(F)cc3)cc21` (stereo in doubt; trans) gave a Ki in assay [1] of 0.068 µM. In the assay with Rattus norvegicus, this compound gave a median effective dose (ED50) of 0.1 mg/kg.

The values are drawn from ChEMBL document CHEMBL1151509, “Synthesis of active metabolites of indole pyrrolothiazole paf antagonists” (Bioorg Med Chem Lett, 1995).
